Where two headings read alike, the source gives them in different places.
Key:
Staphylococcus aureus = experiment: Checkerboard synergy (FICI) of antibiotics with SP-BIM; type: cell-based; settings: Staphylococcus aureus, Staphylococcus aureus; for MIC: 24 h, antibiotic alone, read-out: MIC antibiotic only
Klebsiella pneumoniae = experiment: as above; type: cell-based; settings: for MIC: 24 h, antibiotic alone, read-out: MIC antibiotic only
Enterococcus faecalis = experiment: Adjuvant broth microdilution (antibiotic MIC with SP-BIM at 50 μg/mL); type: cell-based; settings: antibiotic alone
Escherichia coli [1] = experiment: Checkerboard synergy (FICI) of antibiotics with SP-BIM; parameters: MIC SP-BIM 13 only / MIC in combination: Antibiotic: unit not given beside the values; settings: for MIC: 24 h
Streptococcus pneumoniae [2] = experiment: Adjuvant broth microdilution (antibiotic MIC with SP-BIM at 50 μg/mL); type: cell-based; settings: Streptococcus pneumoniae; Streptococcus pneumonia; antibiotic alone; Table 5; read-out: MIC of antibiotic, No compound
Escherichia coli O157:H7 = type: cell-based; settings: antibiotic alone, no SP-BIM
Enterobacter cloacae = experiment: Adjuvant broth microdilution (antibiotic MIC with SP-BIM at 50 μg/mL); type: cell-based; settings: antibiotic alone
Escherichia coli [3] = experiment: microbe, parasite or virus in culture; type: cell-based; settings: antibiotic alone, Table 6, read-out: MIC of antibiotic, No compound
Candida albicans = experiment: Checkerboard synergy (FICI) of antibiotics with SP-BIM; parameters: MIC SP-BIM 13 only / MIC in combination: Antibiotic / MIC antibiotic only: unit not given beside the values
[4] = system: clinical antibiotic resistant isolates of MRSA; experiment: Checkerboard resistance breaking by SP-BIM 13; type: cell-based, Staphylococcus aureus; settings: for Rescue concentration of SP-BIM 13: SP-BIM 13 with the labelled antibiotic; for MIC of antibiotic only: antibiotic alone; for FIC antibiotic: combination with SP-BIM 13; for MIC of antibiotic in combination: with SP-BIM 13 at rescue concentration
Bacillus cereus [5] = experiment: Adjuvant broth microdilution (antibiotic MIC with SP-BIM at 50 μg/mL); type: cell-based; settings: antibiotic alone, Table 9
Bacillus cereus [6] = experiment: Checkerboard synergy (FICI) of antibiotics with SP-BIM; type: cell-based; settings: for MIC: 24 h, antibiotic alone, read-out: MIC antibiotic only
Streptococcus pneumoniae [7] = experiment: as above; type: cell-based; settings: Streptococcus pneumonia (title: Streptococcus pyogenes)
[8] = SP-BIM 9 in combination with the labelled antibiotic
[9] = SP-BIM 13 in combination with the labelled antibiotic
[10] = antibiotic in combination with SP-BIM 9
[11] = antibiotic in combination with SP-BIM 13
[12] = MIC of the antibiotic in combination with SP-BIM 13
[13] = MRSA strain 5872, antibiotic + SP-BIM 13

## CC[C@H]1OC(=O)[C@H](C)[C@@H](O[C@H]2C[C@@](C)(OC)[C@@H](O)[C@H](C)O2)[C@H](C)[C@@H](O[C@@H]2O[C@H](C)C[C@H](N(C)C)[C@H]2O)[C@](C)(O)C[C@@H](C)C(=O)[C@H](C)[C@@H](O)[C@]1(C)O [Erythromycin, erythromycin]
Staphylococcus aureus; SP-BIM 9 checkerboard
  MIC: 0.1 µg/mL
Staphylococcus aureus; SP-BIM 13 checkerboard
  MIC: 0.1 µg/mL
Staphylococcus aureus; [8]
  FIC of SP-BIM 9: 0.50
Staphylococcus aureus; [9]
  FIC of SP-BIM 13: 0.5
Staphylococcus aureus; antibiotic + SP-BIM 9
  Interpretation: Additive (Additive: FICI>0.5-1.0)
  Σ FIC: <0.70
Staphylococcus aureus; antibiotic + SP-BIM 13
  Interpretation: Additive (Additive: FICI>0.5-1.0)
  Σ FIC: 0.7
Staphylococcus aureus; [10]
  MIC in combination, Antibiotic: 0.05 µg/mL
Staphylococcus aureus; [11]
  MIC in combination, Antibiotic: 0.02 µg/mL
Staphylococcus aureus; in combination with SP-BIM 9
  FIC of antibiotic: 0.20
Staphylococcus aureus; in combination with SP-BIM 13
  FIC of antibiotic: 0.2
Klebsiella pneumoniae; SP-BIM 9 checkerboard
  MIC: 250 µg/mL
Klebsiella pneumoniae; SP-BIM 13 checkerboard
  MIC: 16 µg/mL
Klebsiella pneumoniae; [8]
  FIC of SP-BIM 9: 0.5
Klebsiella pneumoniae; [9]
  FIC of SP-BIM 13: 1.0
Klebsiella pneumoniae; antibiotic + SP-BIM 9
  Interpretation: Additive (Additive: FICI>0.5-1.0)
  Σ FIC: <0.8
Klebsiella pneumoniae; antibiotic + SP-BIM 13
  Interpretation: Indifferent (Indifferent: FICI>1.0-4.0)
  Σ FIC: <2.0
Klebsiella pneumoniae; [10]
  MIC in combination, Antibiotic: 63 µg/mL
Klebsiella pneumoniae; [11]
  MIC in combination, Antibiotic: 16 µg/mL
Klebsiella pneumoniae; in combination with SP-BIM 9
  FIC of antibiotic: 0.252
Klebsiella pneumoniae; in combination with SP-BIM 13
  FIC of antibiotic: 1.0
Enterococcus faecalis
  MIC of antibiotic, No Compound: 250 µg/mL
Escherichia coli [1]; read-out: MIC antibiotic only, Escherichia coli, antibiotic alone
  MIC: 16 µg/mL
Escherichia coli [1]; read-out: MIC antibiotic only, Escherichia coli, antibiotic alone, SP-BIM 9 checkerboard
  MIC: 250 µg/mL
Escherichia coli [1]; [12]
  MIC in combination: Antibiotic: 16
Escherichia coli [1]; [8]
  FIC of SP-BIM 9: 1
Escherichia coli [1]; [9]
  FIC of SP-BIM 13: 1.0
Escherichia coli [1]; antibiotic + SP-BIM 9
  Interpretation: Indifferent (Indifferent: FICI>1.0-4.0)
  Σ FIC: <2.0
Escherichia coli [1]; antibiotic + SP-BIM 13
  Interpretation: Indifferent (Indifferent: FICI>1.0-4.0)
  Σ FIC: <2.0
Escherichia coli [1]; [10]
  MIC in combination, Antibiotic: 250 µg/mL
Escherichia coli [1]; combination with SP-BIM 13
  FIC of antibiotic: 1.0
Escherichia coli [1]; in combination with SP-BIM 9
  FIC of antibiotic: 1
Streptococcus pneumoniae [2]
  MIC: 4 µg/mL
Escherichia coli O157:H7
  MIC of antibiotic, No Compound: 250 µg/mL
Enterobacter cloacae
  MIC of antibiotic, No Compound: >250 µg/mL
Escherichia coli [3]
  MIC: > 250 µg/mL
Candida albicans; 24 h, read-out: MIC antibiotic only
  MIC: 16 µg/mL
Candida albicans; [12]
  MIC in combination: Antibiotic: 1
Candida albicans; [9]
  FIC of SP-BIM 13: 1.0
Candida albicans; antibiotic + SP-BIM 13
  Interpretation: Indifferent (Indifferent: FICI>1.0-4.0)
  Σ FIC: <1.1
Candida albicans; combination with SP-BIM 13
  FIC of antibiotic: 0.1
[4]; MRSA strain 5872
  Rescue concentration of SP-BIM 13: 32 µg/mL
  MIC of antibiotic only: 250 µg/mL
  FIC antibiotic: 0.016
  MIC of antibiotic in combination: 4 µg/mL
[4]; [13]
  Interpretation: Synergy (Synergy: FICI≤0.5)
  Σ FIC: <0.14
[4]; MRSA strain 10132
  Rescue concentration of SP-BIM 13: 32 µg/mL
  MIC of antibiotic only: 250 µg/mL
  FIC antibiotic: 0.004
  MIC of antibiotic in combination: 1 µg/mL
[4]; MRSA strain 10132, antibiotic + SP-BIM 13
  Interpretation: Synergy (Synergy: FICI≤0.5)
Bacillus cereus [5]
  MIC of antibiotic, No Compound: 4 µg/mL
Bacillus cereus [6]; SP-BIM 9 checkerboard
  MIC: 16 µg/mL
Bacillus cereus [6]; SP-BIM 13 checkerboard
  MIC: 16 µg/mL
Bacillus cereus [6]; SP-BIM 9 concentration in combination with the labelled antibiotic
  MIC in combination, SP-BIM 9: >250 µg/mL
Bacillus cereus [6]; [8]
  FIC of SP-BIM 9: 1
Bacillus cereus [6]; [9]
  FIC of SP-BIM 13: 0.5
Bacillus cereus [6]; antibiotic + SP-BIM 9
  Interpretation: Indifferent (Indifferent: FICI>1.0-4.0)
  Σ FIC: <2.0
Bacillus cereus [6]; antibiotic + SP-BIM 13
  Interpretation: Synergy (Synergy: FICI≤0.5)
  Σ FIC: 0.5
Bacillus cereus [6]; [10]
  MIC in combination, Antibiotic: 16 µg/mL
Bacillus cereus [6]; [11]
  MIC in combination, Antibiotic: 0.05 µg/mL
Bacillus cereus [6]; in combination with SP-BIM 9
  FIC of antibiotic: 1
Bacillus cereus [6]; in combination with SP-BIM 13
  FIC of antibiotic: 0.01
Streptococcus pneumoniae [7]; [8]
  FIC of SP-BIM 9: 1.00
Streptococcus pneumoniae [7]; antibiotic + SP-BIM 9
  Interpretation: Indifference
  Σ FIC: <2.00
Streptococcus pneumoniae [7]; [10]
  MIC in combination, Antibiotic: >250 µg/mL
Streptococcus pneumoniae [7]; in combination with SP-BIM 9
  FIC of antibiotic: 1.00
Streptococcus pneumoniae [7]; Streptococcus pneumoniae, 24 h, antibiotic alone, SP-BIM 9 checkerboard, read-out: MIC antibiotic only
  MIC: > 250 µg/mL

From patent publication US12285407B2, “Bis-indolylmethane derivatives and uses thereof” (The University of The West Indies, priority 2018, dated 2025)
